Data from patent publication US9079853B2, “Isatin compounds, compositions and methods for treatment of degenerative diseases and disorders” (MUSC FOUNDATION FOR RESEARCH DEVELOPMENT, priority 2013, dated 2015).

What was measured:
661W or C6 cells [1] = assay: XF FCCP-uncoupled oxygen consumption rate assay (IBMX challenge); format: cell-based; details: 24 h; for activity at 0.001 µM: compound 1 nM; for activity at 0.01 µM: compound 10 nM; for activity at 0.0008 µM: compound 800 pM;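 as to XF FCCP OCR (% Ctrl): values normalized to the vehicle control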
Method: The XF FCCP-uncoupled oxygen consumption rate assay assesses mitochondrial capacity by measuring cellular respiration. It was shown that the maximum FCCP-uncoupled oxygen consumption rate (OCR) was a good estimate of maximal mitochondrial capacity (Beeson 2010) and that IBMX treatment of 661W or C6 cells for 24 h caused a loss in maximal uncoupled OCR (Perron 2013). Thus, cells were pretreated with the exemplified compounds for 1 h, added 600 μM IBMX and then measured the uncoupled rate after 24 h. In brief, the OCR measurements were performed using a Seahorse Bioscience XF instrument (Seahorse Bioscience, Billerica, Md.), as previously published (Perron 2013). O2 leakage through the plastic sides and bottom of the plate was accounted for using the AKOS algorithm in the XF software package. Cells were plated on 96- or 24-well custom plates designed for use in the XF and grown to confluency in DMEM+5% FBS (48 h). The medium was then replaced with DMEM+1% FBS for 24 h, along with any treatments.

661W or C6 cells [2] = assay: MTT assay, protection against calcium-ionophore A23187; format: cell-based; details: 1 μM A23187, 24 h
Method: The compound 3-(4,5-Dimethylthiazol-2-yl)-2,5-diphenyltetrazolium bromide (MTT) is a tetrazolium ion that is reduced to a blue formazan dye via several families of NAD(P)H-dependent oxidoreductases. Formation of the formazan dye from MTT or other related tetrazolium dyes are commonly used as a viability assay even though, in fact, the assay is a metabolic capacity assay.
In this assay, 661W or C6 cells were maintained in DMEM supplemented with 10% FBS. 100 μL of 70,000 cells/mL cells were seeded into each well of 96 well plates using DMEM supplemented with 5% FBS. Cells were then allowed to grow to confluency for 48 hours. The compounds of the invention were added in 2 μL media and calcium-ionophore A23187 was then added in 1 μL for a final concentration of 1 μM and after 24 h, 20 μL of […] MTT were added to each well and the cells were incubated for another 4 h after which 100 μL of 1% SDS in 0.01M aqueous HCl were added to each well and the plates were incubated overnight. Absorbance was measured at […] (background correction). The 1 μM ionophore A23187 caused about 50% loss in MTT signal at 24 h. Protection was calculated as the increase in absorbance of treatment groups normalized to the vehicle control.

[3] = 1 h pretreatment, 600 μM IBMX, read-out: XF FCCP OCR (% Ctrl)

SMILES | activity at 0.001 µM (661W or C6 cells [1]; [3]) [%] | MTT, % protection (661W or C6 cells [2]; compound 1 nM) | other results
COc1ccc(O)c(CC2(OC(=O)c3ccccc3)C(=O)N(CCc3ccccc3)c3ccc(Cl)cc32)c1 (stereo not shown) [Example 61, 5-chloro-3-(2-hydroxy-5-methoxybenzyl)-2-oxo-1-phenethylindolin-3-yl benzoate] | 67 | 87.1%, | 
COc1ccc(CC2(OC(=O)c3ccccc3)C(=O)N(CCCN3CCOCC3)c3ccc(Cl)cc32)c(O)c1 (stereo not shown) [Example 56, 5-chloro-3-(2-hydroxy-4-methoxybenzyl)-1-(3-morpholinopropyl)-2-oxoindolin-3-yl benzoate] | 68 | 85.3%, | 
COc1cccnc1CC1(O)C(=O)N(CCc2ccccc2)c2ccc(Cl)cc21 (stereo not shown) [Example 3, 5-chloro-3-hydroxy-3-((3-methoxypyridin-2-yl)methyl)-1-phenethylindolin-2-one] | 74.5 | 74.5%, | 
CCCN1C(=O)C(O)(CC(=O)c2c[nH]c3ccccc23)c2cc(C)ccc21 (stereo not shown) [Example 24, 3-(2-(1H-indol-3-yl)-2-oxoethyl)-3-hydroxy-5-methyl-1-propylindolin-2-one] |  | 69%, | activity at 0.01 µM (661W or C6 cells [1]; [3]): 59%
CCN1C(=O)C(Cc2cccc(OC)c2)(OC(=O)c2ccccc2)c2cc(Cl)ccc21 (stereo not shown) [Example 40, 5-chloro-1-ethyl-3-(3-methoxybenzyl)-2-oxoindolin-3-yl benzoate] | 66 | 81.1%, | 
CCCN1C(=O)C(O)(CC(=O)c2cccc(OC)n2)c2cc(Cl)cc(Cl)c21 (stereo not shown) [Example 30, 5,7-dichloro-3-hydroxy-3-(2-(6-methoxypyridin-2-yl)-2-oxoethyl)-1-propylindolin-2-one] | 59 | 69%, | 
CCN1C(=O)C(Cc2cc(OC)cc(OC)c2)(OC(=O)c2ccccc2)c2cc(C)ccc21 (stereo not shown) [Example 38, 3-(3,5-dimethoxybenzyl)-1-ethyl-5-methyl-2-oxoindolin-3-yl benzoate] | 78 | 84.1%, | 
CC(C)Cn1c(=O)n(C)c(=O)c2[nH]cnc21 [IBMX, reference compound] |  |  | decrease in the uncoupled rate (OCR) (661W or C6 cells [1]; IBMX treatment alone, 600 μM): ~50%
CCCN1C(=O)C(O)(Cc2ccc(OC)cn2)c2cc(C)ccc21 (stereo not shown) [Example 6, 3-hydroxy-3-((5-methoxypyridin-2-yl)methyl)-5-methyl-1-propylindolin-2-one] |  |  | activity at 0.0008 µM (661W or C6 cells [1]; [3]): 67%; MTT, % protection (661W or C6 cells [2]; compound 500 pM): 68.8%,
COc1cc(CC2(O)C(=O)N(CC(C)C)c3ccccc32)cc(OC)c1OC (stereo not shown) [Example 48, 3-hydroxy-1-isobutyl-3-(3,4,5-trimethoxybenzyl)indolin-2-one] | 85 | 91%, | 
COc1cc(CC2(OC(=O)c3ccccc3)C(=O)N(CC(C)C)c3ccc(Cl)cc32)cc(OC)c1OC (stereo not shown) [Example 35, 5-chloro-1-isobutyl-2-oxo-3-(3,4,5-trimethoxybenzyl)indolin-3-yl benzoate] |  |  | activity at 0.0008 µM (661W or C6 cells [1]; [3]): 55%; MTT, % protection (661W or C6 cells [2]; compound 800 pM): 113.5%,
CCCN1C(=O)C(Cc2c[nH]c3ccccc23)(OC(=O)c2ccccc2)c2cc(Cl)ccc21 (stereo not shown) [Example 63, 3-((1H-indol-3-yl)methyl)-5-chloro-2-oxo-1-propylindolin-3-yl benzoate] | 78 | 120%, | 
COc1ccc(CC2(OC(=O)c3ccccc3)C(=O)N(CCCC(C)C)c3ccc(C)cc32)c(O)c1 (stereo not shown) [Example 53, 3-(2-hydroxy-4-methoxybenzyl)-5-methyl-1-(4-methylpentyl)-2-oxoindolin-3-yl benzoate] | 91 | 100%, | 
COc1cc(CC2(O)C(=O)N(CC(C)C)c3ccc(C)cc32)cc(OC)c1OC (stereo not shown) [Example 37, 3-hydroxy-1-isobutyl-5-methyl-3-(3,4,5-trimethoxybenzyl)indolin-2-one] | 65 |  | MTT, % protection (661W or C6 cells [2]; compound 800 pM): 68.4%,
CCCN1C(=O)C(O)(CC(=O)c2ccc(OC)nc2OC)c2cc(Cl)ccc21 (stereo not shown) [Example 22, 5-chloro-3-(2-(2,6-dimethoxypyridin-3-yl)-2-oxoethyl)-3-hydroxy-1-propylindolin-2-one] |  |  | activity at 0.01 µM (661W or C6 cells [1]; [3]): 76%; MTT, % protection (661W or C6 cells [2]; compound 10 nM): 71.8%,
CCCN1C(=O)C(O)(CC(=O)c2ccccn2)c2cc(Cl)ccc21 (stereo not shown) [Example 23, 5-chloro-3-hydroxy-3-(2-oxo-2-(pyridin-2-yl)ethyl)-1-propylindolin-2-one] |  |  | activity at 0.01 µM (661W or C6 cells [1]; [3]): 73%; MTT, % protection (661W or C6 cells [2]; compound 10 nM): 73%,
CCCCN1C(=O)C(Cc2c[nH]c3ccccc23)(OC(=O)c2ccccc2)c2ccccc21 (stereo not shown) [Example 65, 3-((1H-indol-3-yl)methyl)-1-butyl-2-oxoindolin-3-yl benzoate] |  |  | activity at 0.0005 µM (661W or C6 cells [1]; compound 500 pM, 1 h pretreatment, 600 μM IBMX, read-out: XF FCCP OCR (% Ctrl)): 61%; MTT, % protection (661W or C6 cells [2]; compound 500 pM): 135%,
CCCCN1C(=O)C(O)(Cc2cc(OC)cc(OC)c2)c2cc(Cl)ccc21 (stereo not shown) [Example 41, 1-butyl-5-chloro-3-(3,5-dimethoxybenzyl)-3-hydroxyindolin-2-one] | 79 |  | MTT, % protection (661W or C6 cells [2]; compound 1 μM): 66.8%,
CCCCN1C(=O)C(O)(Cc2cccc(OC)c2)c2cc(Cl)ccc21 (stereo not shown) [Example 42, 1-butyl-5-chloro-3-hydroxy-3-(3-methoxybenzyl)indolin-2-one] | 71 | 69.8%, | 
COc1cc(CC2(OC(=O)c3ccccc3)C(=O)N(CCc3ccccc3)c3ccc(Cl)cc32)cc(OC)c1OC (stereo not shown) [Example 50, 5-chloro-2-oxo-1-phenethyl-3-(3,4,5-trimethoxybenzyl)indolin-3-yl benzoate] | 65 | 79.2%, | 
CCCN1C(=O)C(O)(CC(=O)c2cccc(OC)n2)c2cc(C)ccc21 (stereo not shown) [Example 26, 3-hydroxy-3-(2-(6-methoxypyridin-2-yl)-2-oxoethyl)-5-methyl-1-propylindolin-2-one] | 62 |  | MTT, % protection (661W or C6 cells [2]; compound 10 nM): 83.8%,
CCN1C(=O)C(O)(Cc2ccc(OC)cc2)c2cc(C)ccc21 (stereo not shown) [Example 51, 1-ethyl-3-hydroxy-3-(4-methoxybenzyl)-5-methylindolin-2-one] | 65 | 62.2%, | 
COc1cc(CC2(OC(=O)c3ccccc3)C(=O)N(CCc3ccccc3)c3ccc(C)cc32)cc(OC)c1 (stereo not shown) [Example 39, 3-(3,5-dimethoxybenzyl)-5-methyl-2-oxo-1-phenethylindolin-3-yl benzoate] | 66 | 83.2%, | 
CCCN1C(=O)C(O)(Cc2cccc(OC)c2)c2cc(C)ccc21 (stereo not shown) [Example 43, 3-hydroxy-3-(3-methoxybenzyl)-5-methyl-1-propylindolin-2-one] | 69 | 64.8%, | 
CCCN1C(=O)C(O)(CC(=O)c2ccc(OC)nc2OC)c2cc(C)ccc21 (stereo not shown) [Example 25, 3-(2-(2,6-dimethoxypyridin-3-yl)-2-oxoethyl)-3-hydroxy-5-methyl-1-propylindolin-2-one] | 57 | 73.8%, | 
COc1cccc(CC2(OC(=O)c3ccccc3)C(=O)N(CCC(C)C)c3ccc(Cl)cc32)c1O (stereo not shown) [Example 55, 5-chloro-3-(2-hydroxy-3-methoxybenzyl)-1-isopentyl-2-oxoindolin-3-yl benzoate] |  | 67.4%, | 
CCN1C(=O)C(Cc2cc(OC)ccc2O)(OC(=O)c2ccccc2)c2cc(Cl)ccc21 (stereo not shown) [Example 62, 5-chloro-1-ethyl-3-(2-hydroxy-5-methoxybenzyl)-2-oxoindolin-3-yl benzoate] |  |  | activity at 0.0008 µM (661W or C6 cells [1]; [3]): 70%; MTT, % protection (661W or C6 cells [2]; compound 800 pM): 86.4%,
C#Cc1cccc(C(=O)CC2(O)C(=O)N(CCC)c3ccc(Cl)cc32)n1 (stereo not shown) [Example 14, 5-chloro-3-(2-(6-ethynylpyridine-2-yl)-2-oxoethyl)-3-hydroxy-1-propylindolin-2-one] |  |  | MTT, % protection (661W or C6 cells [2]; compound 100 nM): 69.6%,
O=C1N(CCN2CCCCC2)c2ccc(Cl)cc2C1(O)Cc1ccccn1 (stereo not shown) [Example 4, 5-chloro-3-hydroxy-1-(2-(piperidin-1-yl)ethyl)-3-(pyridin-2-ylmethyl)indolin-2-one] | 69 |  | MTT, % protection (661W or C6 cells [2]; compound 800 pM): 61.5%,
